Test results published in US20230151025A1, “SUBSTITUTED THIAZOLOPYRIDINES, SALTS THEREOF AND THEIR USE AS HERBICIDALLY ACTIVE SUBSTANCES” (Bayer Aktiengesellschaft, priority 2020, published 2023).

What follows are compounds tested on Setaria viridis (SETVI) (assay: Herbicidal pre-emergence action (A), 1280 g/ha). Conditions: visual grading after ca. 3 weeks vs untreated controls.
Type: in vivo
Method in brief: (§1)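 Pre-emergence soil-surface spray, 600 l/ha water, 0.5% additive, WP or EC formulation. Sandy loam, double sowing per pot, greenhouse under optimum growth. Visual % damage at ~3 wk vs untreated; 100% = plants died off.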

SMILES | herbicidal effect SETVI [%]
Cc1cccc(F)c1-c1nc2ncsc2cc1Cl [Example I-013] | 100

These compounds were tested on Stellaria media (STEME) (assay: Herbicidal pre-emergence action (A), 1280 g/ha). Conditions: visual grading after ca. 3 weeks vs untreated controls.
Type: in vivo
Method in brief: as §1

SMILES | herbicidal effect STEME [%]
Cc1cccc(F)c1-c1nc2ncsc2cc1Cl [Example I-013] | 100

Each compound was assayed on Echinochloa crus-galli (ECHCG) (assay: Herbicidal pre-emergence action (A), 1280 g/ha). Conditions: visual grading after ca. 3 weeks vs untreated controls, 100% = plants have died off, 0% = as control plants.
Type: in vivo
Method in brief: as §1

SMILES | ECHCG, herbicidal effect in percent (%)
Cc1cccc(F)c1-c1nc2ncsc2cc1Cl [Example I-013] | 100

These compounds were tested on Amaranthus retroflexus (AMARE) (assay: Herbicidal pre-emergence action (A), 1280 g/ha). Conditions: visual grading after ca. 3 weeks vs untreated controls.
Type: in vivo
Method in brief: as §1

SMILES | herbicidal effect AMARE [%]
Cc1cccc(F)c1-c1nc2ncsc2cc1Cl [Example I-013] | 90

These compounds were tested on Matricaria inodora (MATIN) (assay: Herbicidal pre-emergence action (A), 1280 g/ha). Conditions: visual grading after ca. 3 weeks vs untreated controls.
Type: in vivo
Method in brief: as §1

SMILES | herbicidal effect MATIN [%]
Cc1cccc(F)c1-c1nc2ncsc2cc1Cl [Example I-013] | 90

Each compound was assayed on Lolium rigidum (LOLRI) (assay: Herbicidal pre-emergence action (A), 1280 g/ha). Conditions: visual grading after ca. 3 weeks vs untreated controls, 100% = plants have died off, 0% = as control plants.
Type: in vivo
Method in brief: as §1

SMILES | LOLRI, herbicidal effect in percent (%)
Cc1cccc(F)c1-c1nc2ncsc2cc1Cl [Example I-013] | 100

The compounds below were run on Veronica persica (VERPE) (assay: Herbicidal pre-emergence action (A), 1280 g/ha). Conditions: visual grading after ca. 3 weeks vs untreated controls.
Type: in vivo
Method in brief: as §1

SMILES | herbicidal effect VERPE [%]
Cc1cccc(F)c1-c1nc2ncsc2cc1Cl [Example I-013] | 90

The compounds below were run on Kochia scoparia (KCHSC; Bassia scoparia) (assay: Herbicidal pre-emergence action (A), 1280 g/ha). Conditions: visual grading after ca. 3 weeks vs untreated controls.
Type: in vivo
Method in brief: as §1

SMILES | herbicidal effect KCHSC [%]
Cc1cccc(F)c1-c1nc2ncsc2cc1Cl [Example I-013] | 100

These compounds were tested on Abutilon theophrasti (ABUTH) (assay: Herbicidal pre-emergence action (A), 1280 g/ha). Conditions: visual grading after ca. 3 weeks vs untreated controls, 100% = plants have died off, 0% = as control plants.
Type: in vivo
Method in brief: as §1

SMILES | ABUTH, herbicidal effect in percent (%)
Cc1cccc(F)c1-c1nc2ncsc2cc1Cl [Example I-013] | 90

These compounds were tested on Alopecurus myosuroides (ALOMY) (assay: Herbicidal pre-emergence action (A), 1280 g/ha). Conditions: visual grading after ca. 3 weeks vs untreated controls, 100% = plants have died off, 0% = as control plants.
Type: in vivo
Method in brief: as §1

SMILES | ALOMY, herbicidal effect in percent (%)
Cc1cccc(F)c1-c1nc2ncsc2cc1Cl [Example I-013] | 100

The compounds below were run on Digitaria sanguinalis (DIGSA) (assay: Herbicidal pre-emergence action (A), 1280 g/ha). Conditions: visual grading after ca. 3 weeks vs untreated controls, 100% = plants have died off, 0% = as control plants.
Type: in vivo
Method in brief: as §1

SMILES | DIGSA, herbicidal effect in percent (%)
Cc1cccc(F)c1-c1nc2ncsc2cc1Cl [Example I-013] | 100

What follows are compounds tested on Poa annua (POAAN) (assay: Herbicidal pre-emergence action (A), 1280 g/ha). Conditions: visual grading after ca. 3 weeks vs untreated controls, 100% = plants have died off, 0% = as control plants.
Type: in vivo
Method in brief: as §1

SMILES | POAAN, herbicidal effect in percent (%)
Cc1cccc(F)c1-c1nc2ncsc2cc1Cl [Example I-013] | 100

Each compound was assayed on Stellaria media (STEME) (assay: Herbicidal post-emergence action (B), 1280 g/ha). Conditions: not given.
Type: in vivo
Method in brief: (§2)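 Percent activity is a visual score taken about 3 weeks after treatment, relative to untreated plants, where 100% means the plants died and 0% means no difference from controls. Plants were sprayed on green parts at the one-leaf stage with an aqueous suspension or emulsion containing 0.5% additive at 600 L/ha.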

SMILES | herbicidal effect STEME [%]
Cc1cccc(F)c1-c1nc2ncsc2cc1Cl [Example I-013] | 100

These compounds were tested on Echinochloa crus-galli (ECHCG) (assay: Herbicidal post-emergence action (B), 1280 g/ha). Conditions: rated visually after about 3 weeks vs untreated controls.
Type: in vivo
Method in brief: as §2

SMILES | herbicidal activity ECHCG [%]
Cc1cccc(F)c1-c1nc2ncsc2cc1Cl [Example I-013] | 100

What follows are compounds tested on Amaranthus retroflexus (AMARE) (assay: Herbicidal post-emergence action (B), 1280 g/ha). Conditions: rated visually after about 3 weeks vs untreated controls.
Type: in vivo
Method in brief: as §2

SMILES | herbicidal activity AMARE [%]
Cc1cccc(F)c1-c1nc2ncsc2cc1Cl [Example I-013] | 100

These compounds were tested on Lolium rigidum (LOLRI) (assay: Herbicidal post-emergence action (B), 1280 g/ha). Conditions: one-leaf stage, rated after about 3 weeks vs untreated controls, 100% activity = the plants have died, 0% = like control plants.
Type: in vivo
Method in brief: as §2

SMILES | LOLRI, activity rated visually (%)
Cc1cccc(F)c1-c1nc2ncsc2cc1Cl [Example I-013] | 90

Each compound was assayed on Veronica persica (VERPE) (assay: Herbicidal post-emergence action (B), 1280 g/ha). Conditions: not given.
Type: in vivo
Method in brief: as §2

SMILES | herbicidal effect VERPE [%]
Cc1cccc(F)c1-c1nc2ncsc2cc1Cl [Example I-013] | 100

What follows are compounds tested on Kochia scoparia (KCHSC; Bassia scoparia) (assay: Herbicidal post-emergence action (B), 1280 g/ha). Conditions: not given.
Type: in vivo
Method in brief: as §2

SMILES | herbicidal effect KCHSC [%]
Cc1cccc(F)c1-c1nc2ncsc2cc1Cl [Example I-013] | 100

The compounds below were run on Alopecurus myosuroides (ALOMY) (assay: Herbicidal post-emergence action (B), 1280 g/ha). Conditions: rated visually after about 3 weeks vs untreated controls.
Type: in vivo
Method in brief: as §2

SMILES | herbicidal activity ALOMY [%]
Cc1cccc(F)c1-c1nc2ncsc2cc1Cl [Example I-013] | 100

These compounds were tested on Poa annua (POAAN) (assay: Herbicidal post-emergence action (B), 1280 g/ha). Conditions: rated visually after about 3 weeks vs untreated controls.
Type: in vivo
Method in brief: as §2

SMILES | herbicidal activity POAAN [%]
Cc1cccc(F)c1-c1nc2ncsc2cc1Cl [Example I-013] | 90

What follows are compounds tested on Amaranthus retroflexus (AMARE) (assay: Herbicidal post-emergence action (D), 320 g/ha). Conditions: ca. 3 weeks.
Type: in vivo
Method in brief: (§3)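 Post-emergence greenhouse test. Sandy loam; spray at single-leaf stage (2–3 wk after sowing); WP or EC in water + 0.5% additive, 600 l/ha. Visual rating ~3 wk post-spray, % effect vs untreated (0 = control, 100 = dead).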

SMILES | herbicidal effect AMARE [%]
Cc1cccc(F)c1-c1nc2ncsc2cc1Cl [Example I-013] | 80

The compounds below were run on Veronica persica (VERPE) (assay: Herbicidal post-emergence action (D), 320 g/ha). Conditions: ca. 3 weeks.
Type: in vivo
Method in brief: as §3

SMILES | herbicidal effect VERPE [%]
Cc1cccc(F)c1-c1nc2ncsc2cc1Cl [Example I-013] | 80

Each compound was assayed on Alopecurus myosuroides (ALOMY) (assay: Herbicidal post-emergence action (D), 320 g/ha). Conditions: ca. 3 weeks.
Type: in vivo
Method in brief: as §3

SMILES | herbicidal effect ALOMY [%]
Cc1cccc(F)c1-c1nc2ncsc2cc1Cl [Example I-013] | 80

Each compound was assayed on Setaria viridis (SETVI) (assay: Herbicidal pre-emergence action (C), 320 g/ha). Conditions: ca. 3 weeks.
Type: in vivo
Method in brief: (§4)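 Pre-emergence soil-surface spray: WP/EC formulation in water plus 0.5% additive, 600 l/ha, applied over freshly sown, soil-covered seeds in sandy loam. Greenhouse, optimum conditions, ~3 weeks. Visual % damage vs untreated (100% = dead).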

SMILES | herbicidal effect SETVI [%]
Cc1cccc(F)c1-c1nc2ncsc2cc1Cl [Example I-013] | 100

These compounds were tested on Polygonum convolvulus (POLCO) (assay: Herbicidal pre-emergence action (C), 320 g/ha). Conditions: ca. 3 weeks.
Type: in vivo
Method in brief: as §4

SMILES | herbicidal effect POLCO [%]
Cc1cccc(F)c1-c1nc2ncsc2cc1Cl [Example I-013] | 80

The compounds below were run on Echinochloa crus-galli (ECHCG) (assay: Herbicidal pre-emergence action (C), 320 g/ha). Conditions: ca. 3 weeks.
Type: in vivo
Method in brief: as §4

SMILES | herbicidal effect ECHCG [%]
Cc1cccc(F)c1-c1nc2ncsc2cc1Cl [Example I-013] | 100

What follows are compounds tested on Amaranthus retroflexus (AMARE) (assay: Herbicidal pre-emergence action (C), 320 g/ha). Conditions: ca. 3 weeks.
Type: in vivo
Method in brief: as §4

SMILES | herbicidal effect AMARE [%]
Cc1cccc(F)c1-c1nc2ncsc2cc1Cl [Example I-013] | 90

What follows are compounds tested on Lolium rigidum (LOLRI) (assay: Herbicidal pre-emergence action (C), 320 g/ha). Conditions: ca. 3 weeks.
Type: in vivo
Method in brief: as §4

SMILES | herbicidal effect LOLRI [%]
Cc1cccc(F)c1-c1nc2ncsc2cc1Cl [Example I-013] | 100

Each compound was assayed on Veronica persica (VERPE) (assay: Herbicidal pre-emergence action (C), 320 g/ha). Conditions: ca. 3 weeks.
Type: in vivo
Method in brief: as §4

SMILES | herbicidal effect VERPE [%]
Cc1cccc(F)c1-c1nc2ncsc2cc1Cl [Example I-013] | 80

What follows are compounds tested on Alopecurus myosuroides (ALOMY) (assay: Herbicidal pre-emergence action (C), 320 g/ha). Conditions: ca. 3 weeks.
Type: in vivo
Method in brief: as §4

SMILES | herbicidal effect ALOMY [%]
Cc1cccc(F)c1-c1nc2ncsc2cc1Cl [Example I-013] | 100
